Reference: patent US9023826B2 (L'Oreal S.A., priority 2012, dated 2015)

Assay: Solubility in water, with or without hydrotropes, at room temperature
Assay type: physicochemical

Q: With `Nc1ncnc2c1ncn2[C@@H]1O[C@H](CO)[C@@H](O)[C@H]1O` [Adenosine] as the compound, how does the “stability of adenosine/hydrotropes solution in water on further dilution or concentration” value read?
A: Its value is “stable”.

Q: What about the “concentration of stable clear solution obtained” value (5% nicotinamide and 5% caffeine in water) of the same compound?
A: The value was 3 % (w/w).
